Laboratory results published in patent US20140163023A1, “DIHYDROPYRROLO PYRIMIDINE DERIVATIVES AS MTOR INHIBITORS” (Cellzome Limited, priority 2011, published 2014).

Tests used:
[1] = target: T1, PI3Kγ (Homo sapiens, UniProt P48736); assay: kinobeads assay, PI3Kγ; assay type: binding; conditions: 1:1 mix of Jurkat and Ramos cell lysates, read-out: Inhibition values (IC50 in μM) as determined in the kinobeads assay, PI3Kγ
T1 construct: endogenous in cells; host or cells: Jurkat (ATCC TIB-152, clone E6-1) and Ramos (ATCC CRL-1596), 1:1 lysate mix
T1 sequence (P48736 whole entry): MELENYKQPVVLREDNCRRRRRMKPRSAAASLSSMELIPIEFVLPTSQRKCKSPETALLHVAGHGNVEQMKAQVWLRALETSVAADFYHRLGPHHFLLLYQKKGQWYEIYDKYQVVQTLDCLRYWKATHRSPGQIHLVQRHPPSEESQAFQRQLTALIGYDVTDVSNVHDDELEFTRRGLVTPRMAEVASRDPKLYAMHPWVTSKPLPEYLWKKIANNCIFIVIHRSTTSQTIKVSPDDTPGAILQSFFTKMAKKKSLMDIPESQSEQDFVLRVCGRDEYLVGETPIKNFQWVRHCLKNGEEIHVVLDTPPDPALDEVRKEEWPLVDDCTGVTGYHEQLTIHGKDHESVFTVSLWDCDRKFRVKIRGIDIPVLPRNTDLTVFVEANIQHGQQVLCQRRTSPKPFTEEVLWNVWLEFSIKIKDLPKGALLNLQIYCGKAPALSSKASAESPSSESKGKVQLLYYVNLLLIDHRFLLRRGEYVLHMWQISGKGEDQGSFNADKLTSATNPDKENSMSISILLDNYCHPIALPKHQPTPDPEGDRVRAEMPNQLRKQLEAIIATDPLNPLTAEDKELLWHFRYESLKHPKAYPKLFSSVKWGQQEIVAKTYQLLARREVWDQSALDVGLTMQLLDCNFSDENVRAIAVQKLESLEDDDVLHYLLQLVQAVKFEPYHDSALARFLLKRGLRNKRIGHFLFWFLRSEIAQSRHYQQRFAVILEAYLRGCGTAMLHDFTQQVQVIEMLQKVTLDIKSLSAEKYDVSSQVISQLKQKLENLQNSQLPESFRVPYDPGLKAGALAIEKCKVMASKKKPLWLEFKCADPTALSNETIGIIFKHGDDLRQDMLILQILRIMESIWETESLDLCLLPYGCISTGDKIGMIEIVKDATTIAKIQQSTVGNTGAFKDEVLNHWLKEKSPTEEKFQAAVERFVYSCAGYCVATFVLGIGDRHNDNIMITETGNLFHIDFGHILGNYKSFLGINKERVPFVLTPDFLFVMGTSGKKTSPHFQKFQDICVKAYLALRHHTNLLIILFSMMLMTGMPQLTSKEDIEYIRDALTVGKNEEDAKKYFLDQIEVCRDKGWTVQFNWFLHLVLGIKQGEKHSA
Method: (§1) The compounds of the present invention as described were tested in the mTOR kinobeads assay as described below. Briefly, test compounds (at various concentrations) and the affinity matrix (1:1 mixture of beads with immobilized phenylthiazole ligand 1 and beads with immobilized phenylmorpholin-chromen ligand; WO 2009/098021) were added to cell lysate aliquots and allowed to bind to the proteins in the lysate sample. After the incubation time the beads with captured proteins were separated from the lysate. Bound proteins were then eluted and the presence of mTOR, PI3Kα, PI3Kβ, PI3Kγ, PI3Kδ and DNA-dependent protein kinase (DNA-PK) was detected and quantified using a specific antibody in a dot blot procedure and the Odyssey infrared detection system. Dose response curves for individual kinases were generated and IC50 values calculated. Kinobeads assays for PI3 kinases (WO-A 2008/015013) and for kinase selectivity profiling (WO 2009/098021) have been previously described.
(§2) Washing of Affinity Matrix
(§3) The affinity matrix was washed two times with 15 ml of 1×DP buffer containing 0.2% NP40 (IGEPAL® CA-630, Sigma, #13021) and then resupended in 5.5 ml of 1×DP buffer containing 0.2% NP40 (10% beads slurry).
(§4) 5×DP buffer: 250 mM Tris-HCl pH 7.4, 25% Glycerol, 7.5 mM MgCl2, 750 mM NaCl, 5 mM Na3VO4, filter the 5×-lysis buffer through 0.22 μm filter and store in aliquots at −80° C. The 5×DP buffer is diluted to 1×DP buffer containing 1 mM DTT and 25 mM NaF.
(§5) Preparation of Test Compounds
(§6) Stock solutions of test compounds were prepared in DMSO. In a 96 well plate 30 μl solution of diluted test compounds at 5 mM in DMSO were prepared. Starting with this solution a 1:3 dilution series (9 steps) was prepared. For control experiments (no test compound) a buffer containing 2% DMSO was used. Compound Pi-103 (Calbiochem catalogue number 528100) served as a positive control.
(§7) Cell Culture and Preparation of Cell Lysates
(§8) Jurkat cells (ATCC catalogue number TIB-152 Jurkat, clone E6-1) and Ramos cells (ATCC number CRL-1596) were grown in 1 litre Spinner flasks (Integra Biosciences, #182101) in suspension in RPMI 1640 medium (Invitrogen, #21875-034) supplemented with 10% Fetal Bovine Serum (Invitrogen) at a density between 0.15×10^6 and 1.2×10^6 cells/ml. Cells were harvested by centrifugation, washed once with 1×PBS buffer (Invitrogen, #14190-094) and cell pellets were frozen in liquid nitrogen and subsequently stored at −80° C.
(§9) Cells were homogenized in a Potter S homogenizer in lysis buffer: 50 mM Tris-HCl, 0.8% NP40, 5% glycerol, 150 mM NaCl, 1.5 mM MgCl2, 25 mM NaF, 1 mM sodium vanadate, 1 mM DTT, pH 7.5. One complete EDTA-free tablet (protease inhibitor cocktail, Roche Diagnostics, 1873580) per 25 ml buffer was added. The material was dounced 10 times using a mechanized POTTER S, transferred to 50 ml falcon tubes, incubated for 30 minutes on ice and spun down for 10 min at 20,000 g at 4° C. (10,000 rpm in Sorvall SLA600, precooled). The supernatant was transferred to an ultracentrifuge (UZ)-polycarbonate tube (Beckmann, 355654) and spun for 1 hour at 100.000 g at 4° C. (33.500 rpm in Ti50.2, precooled). The supernatant was transferred again to a fresh 50 ml falcon tube, the protein concentration was determined by a Bradford assay (BioRad) and samples containing 50 mg of protein per aliquot were prepared. The samples were immediately used for experiments or frozen in liquid nitrogen and stored frozen at −80° C.
(§10) Cell lysate (approximately 50 mg protein per plate) was thawed in a water bath at room temperature and then kept on ice. To the thawed cell lysate 1×DP 0.8% NP40 buffer containing protease inhibitors (1 tablet for 25 ml buffer; EDTA-free protease inhibitor cocktail; Roche Diagnostics 1873580) was added in order to reach a final protein concentration of 5 mg/ml total protein. For the kinobeads experiment a 1:1 mix of Jurkat and Ramos cell lysates was used. The diluted cell lysate was stored on ice. […]

[2] = target: T2, PI3Kα (Homo sapiens, UniProt P42336); assay: kinobeads assay, PI3Kα; assay type: binding; conditions: 1:1 mix of Jurkat and Ramos cell lysates, read-out: Inhibition values (IC50 in μM) as determined in the kinobeads assay, PI3Kα
T2 construct: endogenous in cells; host or cells: Jurkat (ATCC TIB-152, clone E6-1) and Ramos (ATCC CRL-1596), 1:1 lysate mix
T2 sequence (P42336 whole entry): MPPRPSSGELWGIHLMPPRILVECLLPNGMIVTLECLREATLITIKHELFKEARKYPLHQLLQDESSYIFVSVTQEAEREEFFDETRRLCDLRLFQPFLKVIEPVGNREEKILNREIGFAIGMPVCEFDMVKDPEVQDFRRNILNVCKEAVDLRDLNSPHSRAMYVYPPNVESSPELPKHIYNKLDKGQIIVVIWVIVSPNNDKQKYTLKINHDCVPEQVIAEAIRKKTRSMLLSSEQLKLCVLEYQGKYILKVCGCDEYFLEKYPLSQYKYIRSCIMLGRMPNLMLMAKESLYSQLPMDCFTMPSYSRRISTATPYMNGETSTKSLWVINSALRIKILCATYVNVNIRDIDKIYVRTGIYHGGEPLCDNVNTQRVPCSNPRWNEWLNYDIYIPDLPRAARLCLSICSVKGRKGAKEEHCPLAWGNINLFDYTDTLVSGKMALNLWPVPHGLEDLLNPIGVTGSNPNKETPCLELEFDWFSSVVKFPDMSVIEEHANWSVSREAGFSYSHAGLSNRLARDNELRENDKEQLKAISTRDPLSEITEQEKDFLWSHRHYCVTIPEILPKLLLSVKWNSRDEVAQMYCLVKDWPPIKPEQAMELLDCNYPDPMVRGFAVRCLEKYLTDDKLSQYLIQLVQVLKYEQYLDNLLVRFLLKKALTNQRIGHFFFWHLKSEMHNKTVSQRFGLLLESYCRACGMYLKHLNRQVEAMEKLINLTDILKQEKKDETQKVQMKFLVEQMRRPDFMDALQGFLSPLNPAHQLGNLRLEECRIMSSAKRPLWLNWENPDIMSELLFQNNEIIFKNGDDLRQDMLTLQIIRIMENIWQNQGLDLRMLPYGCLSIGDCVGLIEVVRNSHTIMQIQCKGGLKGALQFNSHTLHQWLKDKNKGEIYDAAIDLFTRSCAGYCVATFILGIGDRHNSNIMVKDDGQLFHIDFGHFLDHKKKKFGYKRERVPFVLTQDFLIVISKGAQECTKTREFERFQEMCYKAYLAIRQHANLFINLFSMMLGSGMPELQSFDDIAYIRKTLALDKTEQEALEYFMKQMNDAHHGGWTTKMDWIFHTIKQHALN
T2 sequence (P27986 whole entry partner): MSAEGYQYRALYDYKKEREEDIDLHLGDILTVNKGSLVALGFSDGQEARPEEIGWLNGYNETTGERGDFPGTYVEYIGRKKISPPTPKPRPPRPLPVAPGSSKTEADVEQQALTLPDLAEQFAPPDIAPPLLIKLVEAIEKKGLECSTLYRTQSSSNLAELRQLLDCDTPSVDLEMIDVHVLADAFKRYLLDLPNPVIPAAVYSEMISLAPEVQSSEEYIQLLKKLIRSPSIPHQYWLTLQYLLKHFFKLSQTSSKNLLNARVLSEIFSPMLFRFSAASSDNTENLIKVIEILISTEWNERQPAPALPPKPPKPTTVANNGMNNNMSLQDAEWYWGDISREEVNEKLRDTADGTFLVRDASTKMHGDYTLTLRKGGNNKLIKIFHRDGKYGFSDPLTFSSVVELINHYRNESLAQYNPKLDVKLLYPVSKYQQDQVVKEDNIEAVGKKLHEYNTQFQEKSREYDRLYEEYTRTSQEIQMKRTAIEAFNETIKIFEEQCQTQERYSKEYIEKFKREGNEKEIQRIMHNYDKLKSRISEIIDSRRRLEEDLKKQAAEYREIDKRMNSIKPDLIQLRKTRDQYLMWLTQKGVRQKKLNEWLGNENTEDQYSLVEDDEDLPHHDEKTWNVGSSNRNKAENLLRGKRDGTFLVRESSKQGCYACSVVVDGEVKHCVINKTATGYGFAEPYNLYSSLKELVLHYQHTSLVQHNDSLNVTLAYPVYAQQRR
Method: as §1, §2, §3, §4, §5, §6, §7, §8, §9, §10

[3] = target: T3, PI3Kβ (Homo sapiens, UniProt P42338); assay: kinobeads assay, PI3Kβ; assay type: binding; conditions: 1:1 mix of Jurkat and Ramos cell lysates, read-out: Inhibition values (IC50 in μM) as determined in the kinobeads assay, PI3Kβ
T3 construct: endogenous in cells; host or cells: Jurkat (ATCC TIB-152, clone E6-1) and Ramos (ATCC CRL-1596), 1:1 lysate mix
T3 sequence (P42338 whole entry): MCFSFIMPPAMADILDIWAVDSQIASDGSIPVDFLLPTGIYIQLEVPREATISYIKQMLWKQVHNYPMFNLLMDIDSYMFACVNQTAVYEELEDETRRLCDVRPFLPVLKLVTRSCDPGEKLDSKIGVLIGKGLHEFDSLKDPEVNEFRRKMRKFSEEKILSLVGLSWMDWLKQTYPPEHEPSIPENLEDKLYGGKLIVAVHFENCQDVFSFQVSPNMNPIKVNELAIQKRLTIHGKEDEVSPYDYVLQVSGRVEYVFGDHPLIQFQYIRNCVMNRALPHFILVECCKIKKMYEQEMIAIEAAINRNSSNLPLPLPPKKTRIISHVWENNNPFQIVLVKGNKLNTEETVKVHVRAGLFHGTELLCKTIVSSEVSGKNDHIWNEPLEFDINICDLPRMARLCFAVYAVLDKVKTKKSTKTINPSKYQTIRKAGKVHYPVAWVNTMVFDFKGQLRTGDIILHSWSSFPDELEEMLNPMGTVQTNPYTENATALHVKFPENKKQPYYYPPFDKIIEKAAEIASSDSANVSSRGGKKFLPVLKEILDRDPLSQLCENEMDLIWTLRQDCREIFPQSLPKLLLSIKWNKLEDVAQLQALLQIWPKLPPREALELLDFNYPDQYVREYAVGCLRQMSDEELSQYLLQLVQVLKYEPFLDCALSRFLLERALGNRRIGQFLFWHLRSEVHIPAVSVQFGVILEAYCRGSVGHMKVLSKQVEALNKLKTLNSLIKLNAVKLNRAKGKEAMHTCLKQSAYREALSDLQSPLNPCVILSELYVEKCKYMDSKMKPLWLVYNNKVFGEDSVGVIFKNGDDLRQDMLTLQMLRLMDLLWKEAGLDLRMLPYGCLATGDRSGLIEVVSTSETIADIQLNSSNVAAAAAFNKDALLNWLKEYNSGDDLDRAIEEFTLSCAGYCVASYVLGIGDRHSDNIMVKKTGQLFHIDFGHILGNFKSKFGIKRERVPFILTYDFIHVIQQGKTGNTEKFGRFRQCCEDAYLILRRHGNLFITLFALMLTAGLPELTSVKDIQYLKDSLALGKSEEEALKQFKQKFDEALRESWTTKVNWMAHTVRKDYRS
T3 sequence (P27986 whole entry partner): as the sequence (P27986 whole entry partner) above
Method: as §1, §2, §3, §4, §5, §6, §7, §8, §9, §10

[4] = target: T4, PI3Kδ (Homo sapiens, UniProt O00329); assay: kinobeads assay, PI3Kδ; assay type: binding; conditions: 1:1 mix of Jurkat and Ramos cell lysates, read-out: Inhibition values (IC50 in μM) as determined in the kinobeads assay, PI3Kδ
T4 construct: endogenous in cells; host or cells: Jurkat (ATCC TIB-152, clone E6-1) and Ramos (ATCC CRL-1596), 1:1 lysate mix
T4 sequence (O00329 whole entry): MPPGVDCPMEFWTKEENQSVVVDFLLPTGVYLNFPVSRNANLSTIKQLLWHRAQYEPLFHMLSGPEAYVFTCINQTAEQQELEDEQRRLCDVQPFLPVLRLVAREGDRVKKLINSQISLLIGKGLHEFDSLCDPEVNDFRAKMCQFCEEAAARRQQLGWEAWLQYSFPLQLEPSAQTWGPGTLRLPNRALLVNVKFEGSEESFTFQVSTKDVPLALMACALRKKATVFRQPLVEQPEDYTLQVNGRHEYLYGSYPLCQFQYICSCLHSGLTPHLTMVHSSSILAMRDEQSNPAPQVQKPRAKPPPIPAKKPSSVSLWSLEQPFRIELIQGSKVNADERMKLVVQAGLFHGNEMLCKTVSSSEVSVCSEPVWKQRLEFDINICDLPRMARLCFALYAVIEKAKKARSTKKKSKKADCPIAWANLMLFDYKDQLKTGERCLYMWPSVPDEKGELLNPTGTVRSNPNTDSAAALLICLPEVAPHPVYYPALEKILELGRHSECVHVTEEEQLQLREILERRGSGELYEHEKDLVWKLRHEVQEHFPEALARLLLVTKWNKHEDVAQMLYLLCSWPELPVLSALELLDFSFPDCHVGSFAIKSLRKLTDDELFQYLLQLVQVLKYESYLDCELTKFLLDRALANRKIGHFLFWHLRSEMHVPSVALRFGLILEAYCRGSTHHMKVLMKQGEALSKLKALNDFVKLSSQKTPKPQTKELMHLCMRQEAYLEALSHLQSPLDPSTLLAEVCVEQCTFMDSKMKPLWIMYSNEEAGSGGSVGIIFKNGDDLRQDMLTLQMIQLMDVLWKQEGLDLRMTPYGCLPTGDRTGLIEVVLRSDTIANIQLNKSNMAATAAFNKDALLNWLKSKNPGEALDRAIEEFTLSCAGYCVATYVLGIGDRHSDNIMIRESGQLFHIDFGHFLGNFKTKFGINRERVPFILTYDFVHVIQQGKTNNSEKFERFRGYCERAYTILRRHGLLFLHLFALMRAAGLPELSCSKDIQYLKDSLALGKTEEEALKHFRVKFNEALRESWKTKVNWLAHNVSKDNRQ
T4 sequence (P27986 whole entry partner): as the sequence (P27986 whole entry partner) above
Method: as §1, §2, §3, §4, §5, §6, §7, §8, §9, §10

[5] = target: T5, DNA-dependent protein kinase (DNA-PK) (Homo sapiens, UniProt P78527); assay: kinobeads assay, DNA-PK; assay type: binding; conditions: 1:1 mix of Jurkat and Ramos cell lysates, read-out: Inhibition values (IC50 in μM) as determined in the kinobeads assay, DNA-PK
T5 construct: endogenous in cells; host or cells: Jurkat (ATCC TIB-152, clone E6-1) and Ramos (ATCC CRL-1596), 1:1 lysate mix
Method: as §1, §2, §3, §4, §5, §6, §7, §8, §9, §10

[6] = target: T6, mTOR (Homo sapiens, UniProt P42345); assay: mTOR kinobeads assay (competition binding in cell lysate, dot blot detection); conditions: 1:1 mix of Jurkat and Ramos cell lysates, read-out: Inhibition values (IC50 in μM) as determined in the kinobeads assay, mTor
T6 construct: endogenous in cells; host or cells: Jurkat (ATCC TIB-152, clone E6-1) and Ramos (ATCC CRL-1596), 1:1 lysate mix
Method: Determination of the Effect of the Compounds According to the Invention on mTOR
as §1, §2, §3, §4, §5, §6, §7, §8, §9
as §10, with “used.” for “used. The diluted cell lysate was stored on ice.”

IC50 [1] [µM] | IC50 [2] [µM] | IC50 [3] [µM] | IC50 [4] [µM] | IC50 [5] [µM] | IC50 [6] [µM] | Structure (SMILES)
10 to 100 | 10 to 100 | 10 to 100 | 10 to 100 | > 100 | 0.1 to 1 | C[C@H]1COCCN1c1nc2c(c(-c3ccc(NC(=O)NC4CC4)cc3)n1)CNC2 [Example 1, (S)-1-cyclopropyl-3-(4-(2-(3-methylmorpholino)-6,7-dihydro-5H-pyrrolo[3,4-d]pyrimidin-4-yl)phenyl)urea]
10 to 100 | 10 to 100 | 10 to 100 | 10 to 100 | 10 to 100 | 0.1 to 1 | CCNC(=O)Nc1ccc(-c2nc(N3CCOC[C@@H]3C)nc3c2CNC3)cc1 [Example 2, (S)-1-ethyl-3-(4-(2-(3-methylmorpholino)-6,7-dihydro-5H-pyrrolo[3,4-d]pyrimidin-4-yl)phenyl)urea]
10 to 100 | 10 to 100 | 10 to 100 | 10 to 100 | > 100 | 0.1 to 1 | CCNC(=O)Nc1ccc(-c2nc(N3CCOC[C@@H]3C)nc3c2CN(C=O)C3)cc1 [Example 3, (S)-1-ethyl-3-(4-(6-formyl-2-(3-methylmorpholino)-6,7-dihydro-5H-pyrrolo[3,4-d]pyrimidin-4-yl)phenyl)urea]
10 to 100 | 1 to 10 | 10 to 100 | 10 to 100 | 10 to 100 | 0.1 to 1 | CCNC(=O)Nc1ccc(-c2nc(N3CCOCC3)nc3c2CNC3)cc1 [Example 4, 1-ethyl-3-(4-(2-morpholino-6,7-dihydro-5H-pyrrolo[3,4-d]pyrimidin-4-yl)phenyl)urea]
10 to 100 | 10 to 100 | 10 to 100 | 10 to 100 | 10 to 100 | 0.1 to 1 | O=C(Nc1ccc(-c2nc(N3CCOCC3)nc3c2CNC3)cc1)NC1CC1 [Example 5, 1-cyclopropyl-3-(4-(2-morpholino-6,7-dihydro-5H-pyrrolo[3,4-d]pyrimidin-4-yl)phenyl)urea]
1 to 10 | 1 to 10 | 1 to 10 | 1 to 10 | 10 to 100 | 0.1 to 1 | NC(=O)Nc1ccc(-c2nc(N3CCOCC3)nc3c2CNC3)cc1 [Example 6, 1-(4-(2-morpholino-6,7-dihydro-5H-pyrrolo[3,4-d]pyrimidin-4-yl)phenyl)urea]
> 100 | > 100 | > 100 | > 100 | > 100 | 1 to 10 | CCNC(=O)Nc1ccc(-c2nc(N3CCOCC3)nc3c2CN(C(=O)OCC)C3)cc1 [Example 7, ethyl 4-(4-(3-ethylureido)phenyl)-2-morpholino-5H-pyrrolo[3,4-d]pyrimidine-6(7H)-carboxylate]
> 100 | > 100 | > 100 | > 100 | > 100 | 10 to 100 | CCNC(=O)Nc1ccc(-c2nc(N3CCOC[C@@H]3C)nc3c2CN(C(=O)OCC)C3)cc1 [Example 8, (S)-ethyl 4-(4-(3-ethylureido)phenyl)-2-(3-methylmorpholino)-5H-pyrrolo[3,4-d]pyrimidine-6(7H)-carboxylate]
> 100 | > 100 | > 100 | > 100 | > 100 | 1 to 10 | CCOC(=O)N1Cc2nc(N3CCOC[C@@H]3C)nc(-c3ccc(NC(=O)NC4CC4)cc3)c2C1 [Example 9, (S)-ethyl 4-(4-(3-cyclopropylureido)phenyl)-2-(3-methylmorpholino)-5H-pyrrolo[3,4-d]pyrimidine-6(7H)-carboxylate]
> 100 | 10 to 100 | > 100 | > 100 | > 100 | 10 to 100 | CCOC(=O)Nc1ccc(-c2nc(N3CCOC[C@@H]3C)nc3c2CNC3)cc1 [Example 10, (S)-ethyl (4-(2-(3-methylmorpholino)-6,7-dihydro-5H-pyrrolo[3,4-d]pyrimidin-4-yl)phenyl)carbamate]
10 to 100 | 10 to 100 | 10 to 100 | 10 to 100 | 10 to 100 | 0.1 to 1 | C[C@H]1COCCN1c1nc2c(c(-c3ccc(NC(=O)NC4CC4)cc3)n1)CN(C)C2 [Example 11, (S)-1-cyclopropyl-3-(4-(6-methyl-2-(3-methylmorpholino)-6,7-dihydro-5H-pyrrolo[3,4-d]pyrimidin-4-yl)phenyl)urea]
> 100 | 10 to 100 | 10 to 100 | 10 to 100 | > 100 | 1 to 10 | CC(=O)N1Cc2nc(N3CCOC[C@@H]3C)nc(-c3ccc(NC(=O)NC4CC4)cc3)c2C1 [Example 12, (S)-1-(4-(6-acetyl-2-(3-methylmorpholino)-6,7-dihydro-5H-pyrrolo[3,4-d]pyrimidin-4-yl)phenyl)-3-cyclopropylurea]
> 100 | > 100 | > 100 | > 100 | > 100 | 0.1 to 1 | CC(C)N1Cc2nc(N3CCOC[C@@H]3C)nc(-c3ccc(NC(=O)NC4CC4)cc3)c2C1 [Example 13, (S)-1-cyclopropyl-3-(4-(6-isopropyl-2-(3-methylmorpholino)-6,7-dihydro-5H-pyrrolo[3,4-d]pyrimidin-4-yl)phenyl)urea]
> 100 | > 100 | > 100 | > 100 | > 100 | 1 to 10 | C[C@H]1COCCN1c1nc2c(c(-c3ccc(NC(=O)NC4CC4)cc3)n1)CN(C1CC1)C2 [Example 14, (S)-1-cyclopropyl-3-(4-(6-cyclopropyl-2-(3-methylmorpholino)-6,7-dihydro-5H-pyrrolo[3,4-d]pyrimidin-4-yl)phenyl)urea]
